Assay results: ChEMBL document CHEMBL4819047, “Discovery of a new class of multi-target heterocycle piperidine derivatives as potential antipsychotics with pro-cognitive effect” (Bioorg Med Chem Lett, 2021)

How the values were obtained:
[1] = target: Histamine H1 receptor (Homo sapiens, UniProt P35367); format: ADME
Description: Binding affinity to histamine H1 receptor (unknown origin)

[2] = target: T1, 5-hydroxytryptamine receptor 2C (Homo sapiens, UniProt P28335)
T1 sequence (P28335 whole entry): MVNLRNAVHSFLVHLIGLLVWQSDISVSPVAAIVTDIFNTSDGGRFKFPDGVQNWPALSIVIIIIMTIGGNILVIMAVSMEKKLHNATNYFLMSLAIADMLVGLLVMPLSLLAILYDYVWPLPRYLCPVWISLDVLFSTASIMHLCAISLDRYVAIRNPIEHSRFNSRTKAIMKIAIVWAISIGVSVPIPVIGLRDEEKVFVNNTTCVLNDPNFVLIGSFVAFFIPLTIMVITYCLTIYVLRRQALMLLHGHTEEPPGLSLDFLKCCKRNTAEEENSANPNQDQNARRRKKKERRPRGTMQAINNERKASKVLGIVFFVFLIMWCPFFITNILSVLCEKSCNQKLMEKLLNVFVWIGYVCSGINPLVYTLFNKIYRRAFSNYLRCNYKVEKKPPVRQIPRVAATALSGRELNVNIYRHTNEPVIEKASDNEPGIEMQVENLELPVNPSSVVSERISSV

[3] = target: T2, Alpha-1A adrenergic receptor (Homo sapiens, UniProt P35348)
T2 sequence (P35348 whole entry): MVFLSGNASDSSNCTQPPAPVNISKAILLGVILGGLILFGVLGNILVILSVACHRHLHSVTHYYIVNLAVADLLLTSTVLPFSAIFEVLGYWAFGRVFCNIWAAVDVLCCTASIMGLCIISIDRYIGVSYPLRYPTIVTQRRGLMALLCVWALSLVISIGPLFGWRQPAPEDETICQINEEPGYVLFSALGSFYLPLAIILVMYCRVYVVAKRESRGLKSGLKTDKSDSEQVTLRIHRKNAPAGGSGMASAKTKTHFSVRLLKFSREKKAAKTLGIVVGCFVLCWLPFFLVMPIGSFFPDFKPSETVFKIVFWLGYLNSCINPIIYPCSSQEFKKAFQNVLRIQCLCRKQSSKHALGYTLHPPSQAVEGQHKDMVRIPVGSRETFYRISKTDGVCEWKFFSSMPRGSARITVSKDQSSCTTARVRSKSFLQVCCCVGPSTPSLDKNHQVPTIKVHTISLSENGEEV
Description: Binding affinity to alpha1 adrenoceptor (unknown origin)

[4] = target: T3, 5-hydroxytryptamine receptor 2A (Homo sapiens, UniProt P28223)
[5] = target: T4, 5-hydroxytryptamine receptor 1A (Homo sapiens, UniProt P08908)
T4 sequence (P08908 whole entry): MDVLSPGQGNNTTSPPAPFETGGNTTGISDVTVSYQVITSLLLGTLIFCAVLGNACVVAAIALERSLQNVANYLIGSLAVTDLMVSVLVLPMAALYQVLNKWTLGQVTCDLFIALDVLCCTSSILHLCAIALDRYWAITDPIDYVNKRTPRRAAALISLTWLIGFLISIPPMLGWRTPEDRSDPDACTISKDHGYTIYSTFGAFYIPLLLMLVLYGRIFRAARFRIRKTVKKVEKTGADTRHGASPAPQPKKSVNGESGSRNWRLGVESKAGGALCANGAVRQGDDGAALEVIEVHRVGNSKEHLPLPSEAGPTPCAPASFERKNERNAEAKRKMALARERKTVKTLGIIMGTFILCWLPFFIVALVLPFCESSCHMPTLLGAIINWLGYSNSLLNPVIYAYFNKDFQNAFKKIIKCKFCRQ

[6] = target: D(3) dopamine receptor (Homo sapiens, UniProt P35462)
Description: Binding affinity to dopamine D3 receptor (unknown origin)

[7] = target: 5-hydroxytryptamine receptor 6 (Homo sapiens, UniProt P50406)
[8] = target: T5, D(2) dopamine receptor (Homo sapiens, UniProt P14416)
Description: Binding affinity to dopamine D2 receptor (unknown origin)

[9] = target: Histamine H3 receptor (Homo sapiens, UniProt Q9Y5N1)
Description: Binding affinity to histamine H3 receptor (unknown origin)

[10] = target: Voltage-gated inwardly rectifying potassium channel KCNH2 (Homo sapiens, UniProt Q12809)
Description: Inhibition of human ERG by automated patch method relative to control

[11] = target: T4, 5-hydroxytryptamine receptor 1A; assay: Antagonist activity at 5-HT1A receptor (unknown origin); format: functional
[12] = target: T5, D(2) dopamine receptor; assay: Antagonist activity at D2 receptor (unknown origin); format: functional
[13] = target: T3, 5-hydroxytryptamine receptor 2A; assay: Antagonist activity at 5-HT2A receptor (unknown origin); format: functional
[14] = Therapeutic index, ratio of ED50 for induction of catalepsy in po dosed mouse to ED50 for antipsychotic activity in po dosed mouse assessed as reduction in MK-801-induced hyperlocomotor activity; format: toxicity, organism-based; conditions: in vivo, read-out: Ratio ED50
[15] = species on record: Mus musculus; assay: animal or person; conditions: po
Description: Antipsychotic activity in po dosed mouse assessed as reduction in MK-801-induced hyperlocomotor activity

[16] = species on record: Mus musculus; assay: animal or person; conditions: po; remark: listed apart in the source
Description: Antipsychotic activity in po dosed mouse assessed as suppression of apomorphine-induced climbing behaviour

[17] = Therapeutic index, ratio of ED50 for induction of catalepsy in po dosed mouse to ED50 for antipsychotic activity in po dosed mouse assessed as suppression of apomorphine-induced climbing; format: toxicity, organism-based; conditions: in vivo, read-out: Ratio ED50
[18] = mouse, in vivo, po
Description: Induction of catalepsy in po dosed mouse by Horizontal grid and elevated bar test

[19] = species on record: Rattus norvegicus; assay: animal or person; conditions: po
Description: Antipsychotic activity in po dosed rat assessed as suppression in conditioned avoidance response by CAR test

Chain of Histamine H3 receptor (Q9Y5N1 whole entry): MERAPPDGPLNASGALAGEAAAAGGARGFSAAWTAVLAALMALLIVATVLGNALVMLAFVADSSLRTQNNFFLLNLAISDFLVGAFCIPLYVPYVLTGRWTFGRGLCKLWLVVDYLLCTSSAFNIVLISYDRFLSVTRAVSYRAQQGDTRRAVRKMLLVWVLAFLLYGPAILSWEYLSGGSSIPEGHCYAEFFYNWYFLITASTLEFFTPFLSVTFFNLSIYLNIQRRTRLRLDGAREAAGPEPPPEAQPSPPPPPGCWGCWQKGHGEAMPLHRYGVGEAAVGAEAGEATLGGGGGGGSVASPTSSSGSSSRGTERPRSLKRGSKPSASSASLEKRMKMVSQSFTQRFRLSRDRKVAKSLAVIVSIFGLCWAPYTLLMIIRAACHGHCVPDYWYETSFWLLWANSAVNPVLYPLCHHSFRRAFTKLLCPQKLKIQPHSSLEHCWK
Chain of 5-hydroxytryptamine receptor 6 (P50406 whole entry): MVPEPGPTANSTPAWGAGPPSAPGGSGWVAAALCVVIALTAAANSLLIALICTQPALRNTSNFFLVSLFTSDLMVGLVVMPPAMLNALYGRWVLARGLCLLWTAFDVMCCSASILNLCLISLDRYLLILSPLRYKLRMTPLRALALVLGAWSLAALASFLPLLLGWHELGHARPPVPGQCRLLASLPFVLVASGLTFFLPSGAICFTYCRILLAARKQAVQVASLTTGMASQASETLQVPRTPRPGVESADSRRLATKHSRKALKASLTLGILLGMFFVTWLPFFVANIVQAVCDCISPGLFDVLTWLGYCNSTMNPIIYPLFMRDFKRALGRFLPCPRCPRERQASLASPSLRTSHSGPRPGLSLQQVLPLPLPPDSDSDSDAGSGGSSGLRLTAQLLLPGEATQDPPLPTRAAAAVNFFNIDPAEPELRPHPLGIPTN
Chain of D(3) dopamine receptor (P35462 whole entry): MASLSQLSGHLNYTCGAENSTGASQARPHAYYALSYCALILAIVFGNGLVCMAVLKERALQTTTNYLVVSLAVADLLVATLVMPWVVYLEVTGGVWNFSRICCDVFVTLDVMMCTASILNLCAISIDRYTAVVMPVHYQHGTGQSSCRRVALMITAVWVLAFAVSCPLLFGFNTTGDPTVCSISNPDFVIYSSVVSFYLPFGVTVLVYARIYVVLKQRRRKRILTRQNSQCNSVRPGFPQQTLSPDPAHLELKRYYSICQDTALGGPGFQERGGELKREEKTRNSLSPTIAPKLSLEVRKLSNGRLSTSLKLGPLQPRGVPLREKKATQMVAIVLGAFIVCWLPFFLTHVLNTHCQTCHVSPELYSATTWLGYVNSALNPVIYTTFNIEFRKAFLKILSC
T3 sequence (P28223 whole entry): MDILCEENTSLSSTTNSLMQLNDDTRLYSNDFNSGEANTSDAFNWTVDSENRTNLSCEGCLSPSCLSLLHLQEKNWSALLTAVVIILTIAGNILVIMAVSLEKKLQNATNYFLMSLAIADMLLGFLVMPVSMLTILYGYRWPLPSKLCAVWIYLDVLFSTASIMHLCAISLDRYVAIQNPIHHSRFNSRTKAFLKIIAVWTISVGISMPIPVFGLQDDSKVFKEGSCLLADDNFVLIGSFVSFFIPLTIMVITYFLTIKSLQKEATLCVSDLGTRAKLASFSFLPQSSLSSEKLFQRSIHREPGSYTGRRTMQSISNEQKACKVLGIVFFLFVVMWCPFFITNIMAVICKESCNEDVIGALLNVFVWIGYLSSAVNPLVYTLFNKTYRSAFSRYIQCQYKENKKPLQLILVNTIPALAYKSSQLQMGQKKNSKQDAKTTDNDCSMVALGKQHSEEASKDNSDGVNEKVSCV
T5 sequence (P14416 whole entry): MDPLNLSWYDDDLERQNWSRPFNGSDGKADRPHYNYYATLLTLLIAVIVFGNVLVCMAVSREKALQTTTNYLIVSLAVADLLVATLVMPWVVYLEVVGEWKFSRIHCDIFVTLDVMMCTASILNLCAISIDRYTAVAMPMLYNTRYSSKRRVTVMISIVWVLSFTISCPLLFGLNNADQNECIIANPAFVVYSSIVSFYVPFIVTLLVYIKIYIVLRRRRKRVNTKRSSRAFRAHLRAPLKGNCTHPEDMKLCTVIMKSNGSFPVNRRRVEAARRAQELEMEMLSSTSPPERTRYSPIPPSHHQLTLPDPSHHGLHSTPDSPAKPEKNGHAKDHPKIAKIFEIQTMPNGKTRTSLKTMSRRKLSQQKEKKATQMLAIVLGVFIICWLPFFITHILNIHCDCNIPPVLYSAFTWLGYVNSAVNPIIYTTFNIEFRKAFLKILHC
Chain of Histamine H1 receptor (P35367 whole entry): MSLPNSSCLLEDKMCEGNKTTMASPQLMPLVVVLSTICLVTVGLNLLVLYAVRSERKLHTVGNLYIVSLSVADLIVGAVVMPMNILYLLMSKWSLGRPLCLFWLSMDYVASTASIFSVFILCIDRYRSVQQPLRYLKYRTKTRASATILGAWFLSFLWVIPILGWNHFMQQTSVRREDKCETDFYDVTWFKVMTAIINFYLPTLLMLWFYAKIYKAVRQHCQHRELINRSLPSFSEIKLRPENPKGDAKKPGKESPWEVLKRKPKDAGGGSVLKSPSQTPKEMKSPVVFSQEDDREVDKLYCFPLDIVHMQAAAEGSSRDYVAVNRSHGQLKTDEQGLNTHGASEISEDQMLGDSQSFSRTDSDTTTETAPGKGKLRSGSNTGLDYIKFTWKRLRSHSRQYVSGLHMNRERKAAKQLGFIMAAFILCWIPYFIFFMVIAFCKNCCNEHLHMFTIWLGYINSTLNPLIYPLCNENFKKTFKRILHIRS
Chain of Voltage-gated inwardly rectifying potassium channel KCNH2 (Q12809 whole entry): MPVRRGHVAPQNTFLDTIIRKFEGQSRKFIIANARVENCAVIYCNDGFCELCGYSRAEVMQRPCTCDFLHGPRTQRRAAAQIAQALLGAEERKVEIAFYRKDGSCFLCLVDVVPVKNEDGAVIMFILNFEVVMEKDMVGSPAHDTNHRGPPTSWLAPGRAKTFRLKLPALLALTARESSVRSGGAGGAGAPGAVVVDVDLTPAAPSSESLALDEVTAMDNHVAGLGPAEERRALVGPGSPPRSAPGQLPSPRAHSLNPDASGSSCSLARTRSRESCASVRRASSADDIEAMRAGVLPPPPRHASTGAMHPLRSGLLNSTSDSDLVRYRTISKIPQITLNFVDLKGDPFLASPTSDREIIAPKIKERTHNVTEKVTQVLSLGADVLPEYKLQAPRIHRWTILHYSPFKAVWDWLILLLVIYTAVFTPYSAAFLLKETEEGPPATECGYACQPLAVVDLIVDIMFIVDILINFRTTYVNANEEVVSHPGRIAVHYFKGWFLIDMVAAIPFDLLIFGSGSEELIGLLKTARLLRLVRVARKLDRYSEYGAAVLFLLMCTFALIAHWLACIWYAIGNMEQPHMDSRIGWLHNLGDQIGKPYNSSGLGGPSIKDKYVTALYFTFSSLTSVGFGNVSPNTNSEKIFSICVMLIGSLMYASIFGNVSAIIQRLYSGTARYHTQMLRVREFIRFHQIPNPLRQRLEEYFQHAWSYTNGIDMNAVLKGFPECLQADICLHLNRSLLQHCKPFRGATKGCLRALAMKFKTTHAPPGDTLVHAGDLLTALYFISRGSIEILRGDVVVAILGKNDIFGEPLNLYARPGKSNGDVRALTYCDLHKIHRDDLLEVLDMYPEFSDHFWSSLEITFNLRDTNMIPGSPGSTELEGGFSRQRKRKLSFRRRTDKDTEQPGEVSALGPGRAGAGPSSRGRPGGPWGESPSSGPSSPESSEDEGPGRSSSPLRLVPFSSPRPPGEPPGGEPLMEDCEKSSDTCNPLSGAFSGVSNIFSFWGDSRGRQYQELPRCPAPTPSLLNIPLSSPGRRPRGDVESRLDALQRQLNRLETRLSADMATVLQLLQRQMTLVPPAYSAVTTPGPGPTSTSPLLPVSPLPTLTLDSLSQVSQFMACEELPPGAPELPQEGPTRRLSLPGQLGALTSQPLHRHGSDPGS

Row | SMILES | Ki [4] | Ki [5] | Ki [8] | Ki [9] | further results
1 | Cc1cc(=O)oc2c(Cl)c(OCCCCN3CCC(c4noc5cc(F)ccc45)CC3)ccc12 | 0.3 nM | 3.3 nM | 2.6 nM |  | Ki [1]: 1130 nM; Ki [2]: 1700 nM; Ki [3]: 2570 nM; Ki [6]: 4.3 nM; Ki [7]: 228 nM
2 | O=c1ccc(OCCCN2CCC(c3noc4cc(F)ccc34)CC2)nn1-c1c(F)cccc1F | 0.3 nM | 5.9 nM | 5 nM |  | Ki [1]: 2000 nM; Ki [2]: 1580 nM; Ki [3]: 337 nM; Ki [6]: 35.7 nM
3 | O=C(CCCN1CCC(c2noc3cc(F)ccc23)CC1)c1cc2c3c(c1)CCN3C(=O)CC2 | 0.7 nM | 8.6 nM | 2.9 nM |  | Ki [1]: 630 nM; Ki [2]: 616 nM; Ki [3]: 43.1 nM; Ki [6]: 1.7 nM; Ki [7]: 5.6 nM
4 | CN1CCN(Cc2ccc(OCCCCN3CCC(c4noc5cc(F)ccc45)CC3)cc2)CC1 | 4.3 nM | 12.4 nM | 1.9 nM | 9.2 nM | Ki [1]: 642 nM; Ki [2]: 426 nM; IC50 [10]: 1060 nM; Ki [3]: 354 nM; Ki [6]: 37.6 nM; Ki [7]: 123 nM
5 | Cc1cc(OCCCN2CCC(c3noc4cc(F)ccc34)CC2)ccc1CN1CCCC1 | 11.5 nM | 89.3 nM | 12.6 nM | 113 nM | 
6 | CN1CCN(CCc2ccc(OCCCN3CCC(c4noc5cc(F)ccc45)CC3)cc2)CC1 | 8.6 nM | 16.4 nM |  | 271 nM | 
7 | CC1CCN(CCc2ccc(OCCCN3CCC(c4noc5cc(F)ccc45)CC3)cc2)CC1 | 42.9 nM | 9.6 nM | 7.4 nM | 11.9 nM | 
8 | Fc1ccc2c(C3CCN(CCCOc4ccc(CCN5CCCCC5)cc4)CC3)noc2c1 | 9.4 nM | 7.4 nM | 9.7 nM | 13.4 nM | Ki [1]: 1020 nM; Ki [2]: 753 nM; IC50 [10]: 2290 nM; Ki [3]: 536 nM; Ki [6]: 15.2 nM; Ki [7]: 149 nM
9 | CC1CCN(CCc2ccc(OCCCCN3CCC(c4noc5cc(F)ccc45)CC3)cc2)CC1 | 5.1 nM | 4.4 nM | 2.7 nM | 15.8 nM | 
10 | Fc1ccc2c(C3CCN(CCCOc4ccc(CN5CCCCC5)cc4)CC3)noc2c1 | 5.1 nM | 89.7 nM | 10.8 nM | 270 nM | 
11 | CN1CCN(Cc2ccc(OCCCN3CCC(c4noc5cc(F)ccc45)CC3)cc2)CC1 | 4.7 nM | 11.9 nM | 1.7 nM | 8.2 nM | Ki [1]: 719 nM; Ki [2]: 573 nM; IC50 [10]: 1560 nM; Ki [3]: 332 nM; Ki [6]: 23.2 nM; Ki [7]: 93.3 nM
12 | Fc1ccc2c(C3CCN(CCCOc4ccc(CN5CCCCC5)c(F)c4)CC3)noc2c1 | 6.2 nM | 92.1 nM | 11.6 nM | 312 nM | 
13 | O=C(CCCN1CCC(O)(c2ccc(Cl)cc2)CC1)c1ccc(F)cc1 [HALOPERIDOL] |  |  |  |  | selectivity ratio [14]: 2.9; ED50 [15]: 0.1 mg/kg; ED50 [16]: 0.09 mg/kg; selectivity ratio [17]: 3.6; ED50 [18]: 0.3 mg/kg
14 | Cc1nc2n(c(=O)c1CCN1CCC(c3noc4cc(F)ccc34)CC1)CCCC2 [RISPERIDONE] |  |  |  |  | ED50 [19]: 0.6 mg/kg; ED50 [15]: 0.04 mg/kg; ED50 [16]: 0.02 mg/kg; ED50 [18]: 1.6 mg/kg

Further lines, with some results ahead:

Row | Ki [4] | Ki [5] | Ki [8] | Ki [9] | SMILES | further results
15 | 8.6 nM | 81.6 nM | 12.2 nM | 93.7 nM | Fc1ccc2c(C3CCN(CCCOc4ccc(CN5CCCC5)cc4)CC3)noc2c1 | 
16 | 5.7 nM | 105 nM | 2.5 nM | 149 nM | Fc1ccc2c(C3CCN(CCCOc4ccc(CN5CCOCC5)cc4Cl)CC3)noc2c1 | 
17 | 4.5 nM | 95.4 nM | 2 nM | 153 nM | Fc1ccc2c(C3CCN(CCCCOc4ccc(CN5CCOCC5)cc4)CC3)noc2c1 | 
18 | 6.5 nM | 90.6 nM | 10.3 nM | 270 nM | Fc1ccc2c(C3CCN(CCCOc4ccc(CN5CCCCC5)cc4F)CC3)noc2c1 | 
19 | 5.6 nM | 100 nM | 1.9 nM | 195 nM | Fc1ccc2c(C3CCN(CCCOc4ccc(CN5CCOCC5)cc4F)CC3)noc2c1 | 
20 | 6.3 nM | 152 nM | 5.4 nM | 163 nM | Fc1ccc2c(C3CCN(CCCOc4ccc(CN5CCOCC5)c(Cl)c4)CC3)noc2c1 | 
21 | 8.4 nM | 5.6 nM | 10.5 nM |  | Fc1ccc2c(C3CCN(CCCOc4ccc(CCN5CCOCC5)cc4)CC3)noc2c1 | Ki [1]: 968 nM; Ki [2]: 610 nM; IC50 [10]: 2410 nM; Ki [3]: 438 nM; IC50 [11]: 247 nM; Ki [7]: 141 nM; IC50 [12]: 11.3 nM; IC50 [13]: 186 nM
22 | 9 nM | 67.7 nM | 9.5 nM | 256 nM | COc1cc(CN2CCCCC2)ccc1OCCCN1CCC(c2noc3cc(F)ccc23)CC1 | 
23 | 4.4 nM | 85.5 nM | 1.5 nM | 166 nM | Fc1ccc2c(C3CCN(CCCOc4ccc(CN5CCOCC5)cc4)CC3)noc2c1 | 
24 | 4.9 nM | 112 nM | 2.6 nM | 147 nM | COc1cc(CN2CCOCC2)ccc1OCCCN1CCC(c2noc3cc(F)ccc23)CC1 | 
25 | 10.8 nM | 77.9 nM | 6.2 nM | 151 nM | COc1cc(CN2CCCC2)ccc1OCCCN1CCC(c2noc3cc(F)ccc23)CC1 | 
26 | 5.1 nM | 100 nM | 3.1 nM | 164 nM | Cc1cc(OCCCN2CCC(c3noc4cc(F)ccc34)CC2)ccc1CN1CCOCC1 | 
27 | 5.2 nM | 92.2 nM | 2 nM | 187 nM | Fc1ccc2c(C3CCN(CCCOc4ccc(CN5CCOCC5)c(F)c4)CC3)noc2c1 | 
28 | 10.1 nM | 79.2 nM | 14.1 nM | 125 nM | Fc1ccc2c(C3CCN(CCCOc4ccc(CN5CCCC5)cc4Cl)CC3)noc2c1 | 
